Data: ChEMBL document CHEMBL1146518, “Phenolic metabolites of Dalea versicolor that enhance antibiotic activity against model pathogenic bacteria” (2004)
Values after ≈ are worked out from the molar mass of the structure shown. Active and inactive are the calls of the source. The calls are words filed in the database; no cut-off is given here.

Legend:
[1] = tested on: Staphylococcus aureus; test: Antimicrobial activity against Staphylococcus aureus after 18 hrs by serial twofold dilution test; format: functional
[2] = tested on: Bacillus cereus; test: Inhibition of NorA MDR efflux pump in Bacillus cereus assessed as fold increase in antimicrobial activity of berberine at 10 ug/ml after 24 hrs by twofold serial dilution method
[3] = target: T1, Quinolone resistance protein NorA (Staphylococcus aureus) (UniProt P0A0J7); test: Inhibition of NorA MDR efflux pump in Staphylococcus aureus assessed as increase in antimicrobial activity of tetracycline at 10 ug/ml after 18 hrs by twofold serial dilution method
T1 sequence (whole entry): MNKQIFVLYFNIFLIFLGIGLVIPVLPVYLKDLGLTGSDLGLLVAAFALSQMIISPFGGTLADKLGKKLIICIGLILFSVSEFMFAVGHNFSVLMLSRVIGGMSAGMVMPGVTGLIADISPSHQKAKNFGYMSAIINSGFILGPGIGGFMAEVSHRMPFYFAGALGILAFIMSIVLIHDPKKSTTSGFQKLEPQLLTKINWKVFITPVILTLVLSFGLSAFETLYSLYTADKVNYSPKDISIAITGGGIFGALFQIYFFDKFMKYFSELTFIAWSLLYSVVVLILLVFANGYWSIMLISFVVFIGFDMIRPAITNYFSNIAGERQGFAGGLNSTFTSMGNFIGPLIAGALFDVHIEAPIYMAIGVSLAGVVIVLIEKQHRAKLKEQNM

[4] = target: T1, Quinolone resistance protein NorA (Staphylococcus aureus); test: Inhibition of NorA MDR efflux pump in Staphylococcus aureus assessed as increase in antimicrobial activity of erythromycin at 10 ug/ml after 18 hrs by twofold serial dilution method
[5] = target: T1, Quinolone resistance protein NorA (Staphylococcus aureus); test: Inhibition of NorA MDR efflux pump in Staphylococcus aureus assessed as increase in antimicrobial activity of berberine at 10 ug/ml after 18 hrs by twofold serial dilution method

| Compound | MIC [1] [µg/mL] | fold change (FC) [2] | Activity [3] | Activity [4] | Activity [5] |
| --- | --- | --- | --- | --- | --- |
| COc1c(C)c(O)c(C)c(O)c1C(=O)/C=C/c1ccccc1 | 250 (≈ 838 µM) | 30 | Active | Active | Active |
| COc1ccc(/C=C/c2cc(OC)cc(OC)c2)cc1 [TRISMETHOXYRESVERATROL] | 500 (≈ 1850 µM) |  |  |  |  |
| C=CC(C)(C)c1cc([C@@H]2CC(=O)c3c(O)cc(O)c(CC=C(C)C)c3O2)c(O)cc1O | 7.8 (≈ 18.4 µM) |  |  |  |  |
| C=CC(C)(C)c1cc(C2COc3c(CC=C(C)C)c(O)cc(O)c3C2=O)c(O)cc1O (stereo not drawn) [DALVERSINOL A] | 31.3 (≈ 73.7 µM) |  |  |  |  |
